From paper PMC9260667, “Thioredoxin Reductase Inhibitors as Potential Antitumors: Mercury Compounds Efficacy in Glioma Cells” (Frontiers in Molecular Biosciences, 2022)
Read-outs that look alike come from different tables or passages of the source.

Assays:
Format in all cases: cell-based, mouse
[1] = test system: GL261 cells; test: ROS production (H2DCFDA assay); details: GL261, 3 h exposure, 0.5-5 µM
Protocol: The assessment of general ROS production was based on the 2′,7′-dichlorodihydrofluorescein diacetate (H2DCFDA) assay ([Huang et al., 2014]).
Cells (8 × 10^4) were plated in black 96-well microplates and then incubated at 37°C for 24 h. Afterwards, the medium was removed, the cells were washed twice with PBS 1x, and culture media with DHCF-DA ([…]) was added to each well followed by a 40 min incubation at 37°C. After the incubation period, the DHCF-DA containing media was removed and the wells were washed twice with PBS 1x before being replenished with fresh medium. This was followed by exposure of cells to Hg compounds (EtHg and TmHg 0.5; 1, 2.5; and 5 µM) for 3 h using 1 mM H2O2 as a positive control. The fluorescence signal was read in a microplate reader (Zenyth 3100, Anthos Labtec Instruments) using 495 nm as the excitation wavelength and 529 nm as the emission wavelength.

[2] = test system: GL261 cells; test: Guava ViaCount assay, apoptotic cells; details: GL261, 24 and 48 h exposure
Protocol: The ViaCount Assay was used to distinguish viable and non-viable cells based on the differential permeability of two dyes in the Guava ViaCount Reagent. The membrane-permeant dye stains all nucleated cells, leaving the cellular debris unstained, while the membrane-impermeant dye brightly stains damaged cells, thus indicating apoptotic and dying cells. GL261 cells (6 × 10^4) were seeded for 24 h in 24-well plates and thereafter were exposed to the TmHg and EtHg for 24 and 48 h. Following treatment, cells were collected from plates along with cell culture supernatants and centrifuged for 5 min (650 g). Supernatants were discarded and the cells were resuspended in phosphate-buffered saline (PBS) containing 2% FBS. Subsequently, 15 μL of cell suspension were mixed with 135 μL of Guava ViaCount reagent and incubated for 5 min at room temperature. Sample acquisition and data analysis were performed with the Guava easyCyte 5HT flow cytometer (GuavaTechnologies, Inc., Hayward, CA, United States) using the ViaCount software module.

[3] = test system: GL261 cells; test: cells; details: read-out: IC50 (MTT assay)
Protocol: The effect of TmHg and EtHg on the viability of GL261 and N9 cells was evaluated by the MTT assay as previously described ([Branco et al., 2014]). Briefly, cells (5 × 10^3) were seeded in 96-well plates (Nunc®) and incubated at 37°C for 24 h to allow proper adherence to plates. Afterwards, TmHg and EtHg (0, 0.5, 1, 2.5, and 5 μM) were added to wells. The same procedure was carried out to evaluate the effect of TMZ on the cellular viability of GL261 and DMSO at a final concentration of 0.1% was added as a control group. For co-exposure, the addition of the mercury compounds (EtHg—1 and 2 μM; TmHg—1 and 2 µM) under study followed the addition of TMZ (200 µM).
Cell viability was determined at the time of addition of the compounds (0 h) and after 24, 48, and 72 h of exposure by adding MTT to a final concentration of 400 μg/ml per well and incubating at 37°C for 4 h. After incubation, the medium was removed, and the formazan crystals were dissolved in a 4:1 DMSO/glycine buffer (pH 10.5). After shaking for 15 min, the viability was evaluated through the measurement of formazan absorption at 550 nm on a microplate reader (Zenyth 3100, Anthos Labtec Instruments) ([Branco et al., 2014]).
The IC50 is the concentration of a compound that decreases MTT reduction by 50% relative to the non-treated control at each time point.

[4] = test system: GL261 cells; test: cells; details: for increase of LDH release upon co-exposure with TMZ: GL261, 200 µM TMZ + 1 µM mercury compound; for EC50: GL261, 24 h exposure, read-out: EC50 (LDH assay)
Protocol: Cells were seeded in 96-well plates for 24 h prior to the addition of TmHg, EtHg (1 µM), TMZ (200, 400, and 800 µM), and for the 48 h end point the co-exposure of TMZ 200 µM with 1 µM EtHg and 1 µM TmHg. After exposure for 24 and 48 h, the supernatant was transferred to a fresh plate and a lysis buffer (10×) (Thermo Scientific™ Pierce™) was added to wells containing cells and incubated at 37°C for 45 min. LDH activity was evaluated using LDH Cytotoxicity Assay Kit from Thermo Scientific™ Pierce™ in the supernatant and lysate by the addition of lactate (substrate), a tetrazolium salt, and NAD^+ (cofactor) (Reaction Mixture), according to the manufacturer’s instructions. Following 30 min of incubation in the dark at room temperature, LDH release was assessed by measuring the absorbance at 490 and 680 nm in a microplate reader (Omega BMG LABTECH). The release of LDH was quantified as the ratio between the amount in the supernatant and total LDH (supernatant + lysate) ([Branco et al., 2017]).

Structure (SMILES) | ROS production [1] | increase in number of apoptotic cells compared to control [2] | IC50 ([3]; GL261, 24 h exposure) | IC50 ([3]; GL261, 48 h exposure) | IC50 ([3]; GL261, 72 h exposure) | increase of LDH release upon co-exposure with TMZ [4] | EC50 [4] | EC50 (LDH) fold lower in GL261 than in SH-SY5Y cells ([4]; GL261 versus previously reported SH-SY5Y value (Branco et al., 2017))
C[CH2][Hg] [EtHg, ethylmercury] | concentration-dependent increase | > 50% | 2700 ± 300 nM | 2400 ± 400 nM | 970 ± 70 nM | greater than 50% | 1710 ± 400 nM | 3 fold
C[CH2][Hg][S]c1ccccc1C(=O)[O-].[Na+] [TmHg, thimerosal] | concentration-dependent increase | > 50% | 2500 ± 400 nM | 2500 ± 400 nM | 920 ± 100 nM | greater than 50% | 1310 ± 200 nM | 
